# Laboratory results from patent US20120283428A1, “HYALURONIC ACID DERIVATIVE EFFECTIVE AGAINST ATOPIC DERMATITIS, AND METHOD FOR MANUFACTURING SAME” (CELLINBIO CO.,LTD, priority 2009, published 2012).
# Test system: PGE2
# Experiment: PGE2 level in LPS-stimulated macrophage cell-line, ELISA
# Type: cell-based, mouse
# Conditions: RAW 264.7, 500 ng/ml LPS, 10 mg/ml test substance, 24 hours, compared to control (FIG. 2)
# Experimental: As a positive control, ascorbic acid (AA) and a mixture of hyaluronic acid and ascorbic acid (HA+AA) was used in this Example. PGE2 is a substance causing inflammation, edema, pain and fever in body. Microphage cell-line (RAW 264.7) was inoculated into medium containing DMEM (Dulbecco's modified Eagle's medium)/FBS (Fetal Bovine Serum) under a condition of […] of CO2 concentration at a temperature of 37° C. in order to culture the cell-line. […] The complete medium was cultured additionally for 24 hours, and then PGE2 level in supernatant of medium was assayed by ELISA (enzyme-linked Immunosorbent Assay) analysis. […] Each well was washed, and then substrate solution was added.
structure (smiles),measurement,value
"O=C1O[C@H]([C@@H](O)CO)C(O)=C1O [AA, ascorbic acid]",PGE2 level in supernatant of medium,decrease PGE2 significantly
